Measurements: patent US20080213250A1, “Use of Eph Receptor Inhibitors for the Treatment of Neurodegenerative Diseases” (priority 2004, published 2008)

Tests used:
EphA3 = target: T1, EphA3 (Mus musculus, UniProt P29319); test: Chemical proteomics pull-down with immobilized compound, LC-MS/MS identification; conditions: maximum in any chemical proteomics experiment
T1 sequence (P29319 21-983): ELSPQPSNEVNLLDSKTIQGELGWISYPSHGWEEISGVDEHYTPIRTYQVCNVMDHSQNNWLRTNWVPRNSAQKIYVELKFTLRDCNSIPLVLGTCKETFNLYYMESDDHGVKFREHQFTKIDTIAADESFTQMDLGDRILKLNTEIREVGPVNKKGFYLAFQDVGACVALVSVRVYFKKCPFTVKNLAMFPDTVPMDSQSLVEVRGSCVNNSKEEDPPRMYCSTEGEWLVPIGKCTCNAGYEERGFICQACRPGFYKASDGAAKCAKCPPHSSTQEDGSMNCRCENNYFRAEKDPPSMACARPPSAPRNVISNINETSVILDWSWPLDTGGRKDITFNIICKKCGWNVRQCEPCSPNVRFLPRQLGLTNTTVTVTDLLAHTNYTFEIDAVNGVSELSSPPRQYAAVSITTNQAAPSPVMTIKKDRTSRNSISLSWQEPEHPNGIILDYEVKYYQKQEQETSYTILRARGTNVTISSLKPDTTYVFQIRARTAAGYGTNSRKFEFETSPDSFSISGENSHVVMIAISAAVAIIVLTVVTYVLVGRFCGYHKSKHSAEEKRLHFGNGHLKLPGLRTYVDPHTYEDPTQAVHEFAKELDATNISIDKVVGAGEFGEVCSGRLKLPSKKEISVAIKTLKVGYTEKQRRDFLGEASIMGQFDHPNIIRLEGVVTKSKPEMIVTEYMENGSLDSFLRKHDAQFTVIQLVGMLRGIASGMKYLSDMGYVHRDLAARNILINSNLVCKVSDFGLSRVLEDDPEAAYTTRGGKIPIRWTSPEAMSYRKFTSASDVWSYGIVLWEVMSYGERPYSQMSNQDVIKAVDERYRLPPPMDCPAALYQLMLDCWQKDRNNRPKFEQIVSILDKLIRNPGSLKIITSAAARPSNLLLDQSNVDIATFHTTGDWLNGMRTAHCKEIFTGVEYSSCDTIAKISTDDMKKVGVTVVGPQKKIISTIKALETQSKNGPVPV

EphA2 = EphA2 (Mus musculus, UniProt Q03145); test: as above; conditions: maximum in any chemical proteomics experiment
TAP-tagged Eph kinases = test: Autophosphorylation of TAP-tagged Eph kinases in-vitro; type: biochemical; conditions: data not shown
EphB6 = target: T2, EphB6 (Mus musculus, UniProt O08644); test: Chemical proteomics pull-down with immobilized compound, LC-MS/MS identification; conditions: maximum in any chemical proteomics experiment
T2 sequence (O08644 33-1014): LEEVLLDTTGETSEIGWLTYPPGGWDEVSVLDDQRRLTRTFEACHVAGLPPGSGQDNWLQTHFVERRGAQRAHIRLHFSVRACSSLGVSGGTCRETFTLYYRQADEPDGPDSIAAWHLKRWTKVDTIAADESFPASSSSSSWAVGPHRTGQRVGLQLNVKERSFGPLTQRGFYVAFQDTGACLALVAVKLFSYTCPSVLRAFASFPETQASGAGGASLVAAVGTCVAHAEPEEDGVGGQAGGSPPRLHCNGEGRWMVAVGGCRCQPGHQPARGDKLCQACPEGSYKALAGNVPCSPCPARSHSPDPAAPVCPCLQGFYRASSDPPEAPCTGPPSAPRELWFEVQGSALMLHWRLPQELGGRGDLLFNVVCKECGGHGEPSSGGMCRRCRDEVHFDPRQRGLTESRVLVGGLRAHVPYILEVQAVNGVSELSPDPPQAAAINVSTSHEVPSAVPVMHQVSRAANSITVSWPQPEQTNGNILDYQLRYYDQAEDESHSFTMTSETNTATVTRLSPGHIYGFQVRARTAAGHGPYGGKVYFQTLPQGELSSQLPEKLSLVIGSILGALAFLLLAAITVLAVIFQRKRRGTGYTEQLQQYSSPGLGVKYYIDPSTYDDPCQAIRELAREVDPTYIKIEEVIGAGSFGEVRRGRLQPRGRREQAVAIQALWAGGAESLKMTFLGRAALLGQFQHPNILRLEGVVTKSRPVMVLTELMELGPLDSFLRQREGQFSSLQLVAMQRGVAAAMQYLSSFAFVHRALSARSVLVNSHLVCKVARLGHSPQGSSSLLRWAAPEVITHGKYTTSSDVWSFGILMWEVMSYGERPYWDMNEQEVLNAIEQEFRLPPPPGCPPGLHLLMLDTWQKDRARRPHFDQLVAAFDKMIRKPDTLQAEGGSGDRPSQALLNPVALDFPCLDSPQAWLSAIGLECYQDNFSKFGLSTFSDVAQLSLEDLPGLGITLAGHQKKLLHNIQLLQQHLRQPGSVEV

Sequence of EphA2 (Q03145 26-977): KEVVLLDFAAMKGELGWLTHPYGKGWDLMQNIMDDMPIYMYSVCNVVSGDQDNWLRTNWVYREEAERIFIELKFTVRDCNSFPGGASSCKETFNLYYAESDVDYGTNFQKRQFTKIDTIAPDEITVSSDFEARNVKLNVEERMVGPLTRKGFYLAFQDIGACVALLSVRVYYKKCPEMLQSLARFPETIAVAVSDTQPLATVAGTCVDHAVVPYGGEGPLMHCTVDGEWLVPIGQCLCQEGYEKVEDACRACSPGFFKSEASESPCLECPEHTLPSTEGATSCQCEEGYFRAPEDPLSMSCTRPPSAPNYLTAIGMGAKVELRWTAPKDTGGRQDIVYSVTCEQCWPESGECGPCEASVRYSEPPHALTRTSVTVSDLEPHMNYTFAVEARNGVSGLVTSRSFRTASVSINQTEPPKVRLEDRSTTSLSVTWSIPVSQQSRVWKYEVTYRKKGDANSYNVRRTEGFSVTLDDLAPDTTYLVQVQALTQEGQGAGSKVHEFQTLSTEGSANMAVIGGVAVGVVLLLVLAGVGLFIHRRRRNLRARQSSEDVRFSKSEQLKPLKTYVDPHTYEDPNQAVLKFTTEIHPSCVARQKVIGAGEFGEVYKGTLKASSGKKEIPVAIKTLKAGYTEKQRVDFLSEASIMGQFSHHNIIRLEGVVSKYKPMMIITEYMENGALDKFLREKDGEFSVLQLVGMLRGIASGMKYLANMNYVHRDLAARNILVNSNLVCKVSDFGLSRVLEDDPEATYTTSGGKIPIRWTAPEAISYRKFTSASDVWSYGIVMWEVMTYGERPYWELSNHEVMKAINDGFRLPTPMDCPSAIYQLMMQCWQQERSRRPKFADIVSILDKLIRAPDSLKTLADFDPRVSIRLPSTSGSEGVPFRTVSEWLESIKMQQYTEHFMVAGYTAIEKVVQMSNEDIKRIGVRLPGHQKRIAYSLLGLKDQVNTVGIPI

Row | Compound | maximal number of non-redundant peptides identified, EphA3 (EphA3) | maximal number of non-redundant peptides identified, EphA2 (EphA2) | inhibition of autophosphorylation of TAP-tagged Eph kinases in-vitro (TAP-tagged Eph kinases) | maximal number of non-redundant peptides identified, EphB6 (EphB6)
1 | CC(C)[C@H](CO)Nc1nc(Nc2ccc(C(=O)O)c(Cl)c2)c2ncn(C(C)C)c2n1 [Purvalanol B] | 1 | 18 |  | 
2 | CSc1cccc(Nc2ncc3cc(-c4c(Cl)cccc4Cl)c(=O)n(C)c3n2)c1 [PD173955] |  |  | potent inhibitors | 7
